One may read the Ki as a measure of affinity in units of concentration, obtained from inhibition or displacement. As usually defined, the IC50 is the concentration at which inhibition is half-maximal. Broadly, the melting point is the temperature of the solid-liquid transition. For orientation: inhibition means the drop in the measured response relative to a control, in per cent.

“And” between values parts separate entries of the source, which are not always exact repeats. Identical values can stand only once.

For one data set, the target named is T1, CDK4/Cyclin D3 complex (Homo sapiens, UniProt P11802).
T1 construct: made in house; host or cells: insect cells co-infected with baculovirus vectors
T1 sequence (P11802 whole entry): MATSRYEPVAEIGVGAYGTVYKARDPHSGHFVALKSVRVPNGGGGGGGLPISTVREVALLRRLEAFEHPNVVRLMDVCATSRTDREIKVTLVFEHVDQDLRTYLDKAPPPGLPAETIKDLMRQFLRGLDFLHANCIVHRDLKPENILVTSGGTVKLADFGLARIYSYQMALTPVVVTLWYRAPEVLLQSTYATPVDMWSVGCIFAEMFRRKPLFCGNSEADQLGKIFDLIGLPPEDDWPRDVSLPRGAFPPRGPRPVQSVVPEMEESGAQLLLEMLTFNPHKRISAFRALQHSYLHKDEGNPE
T1 sequence (P30281 whole entry partner): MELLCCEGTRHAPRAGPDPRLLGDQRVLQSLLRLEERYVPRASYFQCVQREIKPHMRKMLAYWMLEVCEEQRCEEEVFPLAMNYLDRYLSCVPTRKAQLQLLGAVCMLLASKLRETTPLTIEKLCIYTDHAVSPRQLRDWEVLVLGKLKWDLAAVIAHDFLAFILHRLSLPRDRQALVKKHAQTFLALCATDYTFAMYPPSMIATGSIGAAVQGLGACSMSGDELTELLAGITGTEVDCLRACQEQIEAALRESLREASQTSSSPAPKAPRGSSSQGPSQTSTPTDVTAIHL
The experiment in a line: CDK4/Cyclin D assay. The format is biochemical. The conditions noted are these: Table 2. Put shortly:
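Insect-cell-expressed CDK4/cyclin D3 (50 nM) phosphorylating His-tagged Rb fragment (residues 386-928) with 25 μM [^32P]ATP in HEPES pH 7.4, MgCl2, 2% DMSO; 20 min at 30 °C, EDTA stop. Filter-captured 32P by phosphorimager; apparent Ki from competitive or tight-binding inhibition fits.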

For data set [1], the system named is lung cancer cells (line MV522). The experiment in a line: Cancer cell proliferation (MV522) assay. The format is cell-based. As to conditions: MV522, Table 2.
The target in the next data set is CDK2/Cyclin A complex (Homo sapiens, UniProt P24941). The experiment in a line: CDK2/Cyclin A assay. In kind it is biochemical. As to conditions: Table 2. Put shortly:
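Radiometric assay: 150 nM CDK2/cyclin A (insect-cell CDK2, truncated cyclin A) phosphorylates His-tagged Rb fragment (residues 386-928) with 25 μM ATP plus [32P]ATP, pH 7.4 HEPES, 2% DMSO, 30 °C for 20 min. Filter-captured product counted by phosphorimager; apparent Ki from competitive or tight-binding inhibition fits.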

In a further data set the target is T2, FGF-R1 (Homo sapiens, UniProt P11362, C488A/C584S/L457V).
T2 construct: starting from the endogenous methionine residue 456 to glutamate 766; made in house; host or cells: baculovirus vector expression system
T2 sequence (P11362 456-766 L457V/C488A/C584S): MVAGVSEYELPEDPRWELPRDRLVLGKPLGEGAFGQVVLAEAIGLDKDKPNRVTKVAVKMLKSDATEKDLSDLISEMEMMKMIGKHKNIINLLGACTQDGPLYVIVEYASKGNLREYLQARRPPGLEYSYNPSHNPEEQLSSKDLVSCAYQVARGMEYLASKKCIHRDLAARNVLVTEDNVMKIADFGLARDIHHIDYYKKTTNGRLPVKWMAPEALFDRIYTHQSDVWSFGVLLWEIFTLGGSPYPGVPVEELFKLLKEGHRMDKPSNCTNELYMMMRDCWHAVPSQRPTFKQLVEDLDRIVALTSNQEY
The experiment in a line: FGF-R spectrophotometric assay. The format is biochemical. The conditions noted are these: Table 2. Put shortly: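 Kinase domain (Met456–Glu766, baculovirus-expressed) used at 50 nM in a spectrophotometric assay run as for VEGF-R2. Substrates were 2 mM ATP and 15 mM poly(E4Y1).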

A further data set deals with T3, CHK1 (Homo sapiens, UniProt O14757).
T3 sequence (O14757 1-476): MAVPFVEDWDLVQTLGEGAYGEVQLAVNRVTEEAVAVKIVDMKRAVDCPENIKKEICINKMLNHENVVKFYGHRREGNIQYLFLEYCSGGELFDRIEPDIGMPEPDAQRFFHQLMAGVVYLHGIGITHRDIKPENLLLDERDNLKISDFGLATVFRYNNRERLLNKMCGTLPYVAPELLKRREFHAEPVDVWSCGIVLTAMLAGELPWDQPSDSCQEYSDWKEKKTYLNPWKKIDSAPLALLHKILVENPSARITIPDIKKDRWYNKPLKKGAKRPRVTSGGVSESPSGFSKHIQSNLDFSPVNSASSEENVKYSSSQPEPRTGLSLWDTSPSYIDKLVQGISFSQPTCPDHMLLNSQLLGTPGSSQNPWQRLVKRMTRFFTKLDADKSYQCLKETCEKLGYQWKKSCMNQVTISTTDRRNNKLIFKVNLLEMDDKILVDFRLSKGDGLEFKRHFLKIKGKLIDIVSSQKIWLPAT
The experiment in a line: CHK1 high-throughput screening. The format is biochemical. As to conditions: read-out: % inhibition @ 20 μM, Table 4, repeated entries per example.

Another data set concerns the target T4, FAKcd409 (Homo sapiens, UniProt Q05397, P410T).
T4 construct: comprises residues methionine 409 to glutamate 689; made in house; host or cells: baculovirus vector expression system
The experiment in a line: FAK HTS assay. The format is biochemical. As to conditions: 10 uM compound, HTS Delphia assay; 10 µM.

T4 sequence (Q05397 409-689 P410T): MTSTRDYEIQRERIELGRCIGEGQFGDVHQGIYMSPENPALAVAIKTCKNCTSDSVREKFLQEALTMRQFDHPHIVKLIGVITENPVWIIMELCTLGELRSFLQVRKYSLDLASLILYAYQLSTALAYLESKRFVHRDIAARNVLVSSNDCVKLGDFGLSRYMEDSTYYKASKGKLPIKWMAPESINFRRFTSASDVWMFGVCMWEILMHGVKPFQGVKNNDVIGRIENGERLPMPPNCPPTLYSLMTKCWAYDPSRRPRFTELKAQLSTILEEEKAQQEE

For the compound `COc1cc(Nc2nc(N)c(-c3nc(-c4cccc(O)c4)no3)s2)cc(OC)c1OC` [K(1), 3-{5-[4-Amino-2-(3,4,5-trimethoxy-phenylamino)-thiazol-5-yl]-[1,2,4]oxadiazol-3-yl}-phenol], the Ki at CDK4/Cyclin D3 complex is 6.7 µM; on CDK2/Cyclin A complex it was 0.62 µM. In data set [1], this compound displayed an IC50 of 5.4 µM.
Compound `COc1cc(Nc2nc(N)c(-c3nc(-c4cccc(O)c4)cs3)s2)cc(OC)c1OC` [A(17), 3-[4′-Amino-2′-(3,4,5-trimethoxy-phenylamino)-[2,5′]bithiazolyl-4-yl]-phenol] yielded a melting point of 226 to 230 °C. Moreover, the Ki on CDK4/Cyclin D3 complex amounted to 29 µM. Affinity on FGF-R1 was put at a Ki of 2.4 µM. In addition, the half-inhibitory concentration (IC50) in data set [1] is more than 10 µM. Also, the Ki on CDK2/Cyclin A complex was determined as 2.1 µM.
On to `CCCNc1nc(N)c(-c2nc(-c3cccc(O)c3)cs2)s1` [A(29), 3-(4′-Amino-2′-propylamino-[2,5′]bithiazolyl-4-yl)-phenol], for which the Ki at CDK4/Cyclin D3 complex is 13 µM; on CDK2/Cyclin A complex, 6.4 µM. In data set [1], the IC50 is more than 10 µM. The inhibition at 20 µM on CHK1 was determined as 7.1%. The “% inhibition of FAK” value at FAKcd409 was −6% and −11% and −8%.
